Laboratory results taken from PMC3183052, “Immunoprotectivity of HLA-A2 CTL Peptides Derived from Respiratory Syncytial Virus Fusion Protein in HLA-A2 Transgenic Mouse” (PLoS ONE, 2011).
Entries after “also recorded” stand apart in the source; their conditions may differ.

Tests used:
[1] = test system: splenocytes from HLA-A*0201 transgenic C57BL/6 mice; assay: IL-2 ELISPOT of splenocytes restimulated with peptide; assay type: cell-based, mouse
Outline: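 HLA-A*0201 transgenic C57BL/6 mice primed and boosted intranasally 20 days apart with 1×10^7 pfu rAd-F0 or 1×10^4 live RSV B1; splenocytes taken 10 days post-boost. Splenocytes restimulated 48 h at 37°C with 2 µg individual RSV F 9-mer peptides; spots counted, expressed per 5×10^5 splenocytes.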

[2] = test system: RSV-B1; assay: Lung viral load after live RSV challenge (real-time RT-PCR of RSV N gene); assay type: in vivo, HLA-A*0201 transgenic C57BL/6 mice; details: two s.c. doses of 50 µg peptide in IFA, challenge i.n. 1×10^7 pfu live RSV-B1, day 4 post-infection; 10 mice per group; vehicle mean = 0.95
Method: To screen the immunodominance of epitopic peptide in the induction of RSV-F specific Th1/Th2 expression, HLA-A*0201 transgenic C57BL/6 mice were anesthetized with isoflurane and immunized with 1×10^7 pfu/50 µL of rAd-F0 or rAd-LacZ or 1×10^4 live RSV B1 via the intranasal (i.n.) route. Twenty days later, the mice were given booster immunization i.n. with the same dose. After 10 days of boost, mice were sacrificed and splenocytes were isolated for the cytokine ELISPOT assay. […] Mice body weight was monitored daily.
Lung RNA (5 µg) was mixed with 10 nmole random primers and 2 units of […] reverse transcriptase (Invitrogen) and incubated at 94°C for 10 minutes, 37°C for 30 minutes, and then at 4°C. The resulting cDNA was subjected to quantitative PCR analysis (The LightCycler® 480 Real-Time PCR system) with RSV N specific primer pairs, forward: 5′-[…]-3′ and reverse: 5′-[…]-3′. Expression of mouse GAPDH gene in the tested samples was detected as internal control by using specific primer pairs, forward: 5′-[…]-3′ and reverse: 5′-[…]-3′. The number of cycles (Ct) required for the amplification of the N gene and GAPDH was calculated. The relative expression of the N gene was calculated as followed: the individual Ct (RSV N) obtained from peptide- or vehicle-immunized lung was normalized by the respective Ct (GAPDH), and then [drawing 3] was divided by the mean of [drawing 4] . […]

YMLTNSELL [peptide 14, HLA-A*0201-restricted 9-mer synthetic peptide from F protein of RSV-B1 strain]
IL-2 ELISPOT, RSV ([1]; splenocytes of HLA-Tg B6 mice primed and boosted i.n. with 10^4 pfu RSV-B1, restimulated with 2 µg peptide, representative of two experiments, five mice per group): 34.5 cytokine-secreting cells per 5×10^5 splenocytes | IL-2 ELISPOT, rAd-F0 ([1]; splenocytes of HLA-Tg B6 mice primed and boosted i.n. with 10^7 pfu rAd-F0, restimulated with 2 µg peptide, representative of two experiments, five mice per group): 200 cytokine-secreting cells per 5×10^5 splenocytes | IL-2 level in restimulated splenocytes (ELISPOT, text grading) ([1]; splenocytes of rAd-F0- or RSV B1-primed and boosted HLA-Tg B6 mice, high = over 100 spots, moderate = over 50 spots): over 100 spots | expression of RSV N gene in the lungs (relative, normalized to GAPDH), mean [2]: no significant reduction; also recorded: reduced lung viral load only marginally
